Results reported in paper PMC10970644, “Molecular Pharmacology of Gelsemium Alkaloids on Inhibitory Receptors” (International Journal of Molecular Sciences, 2024).

Tests used:
chimeric α2α1 GlyR = molecular target: T1, chimeric α2α1 GlyR (Rattus norvegicus, UniProt P07727+P22771, A288G/A330S/F348L/L351F/V274I); type: cell-based
T1 construct: Relevance of the ECD for the subunit-specific actions of gelsemine on α1GlyRs; fusion partner: GlyR α1 transmembrane and C-terminal part (Glra1, printed Q546L7); expressed in transfected cells; host or cells: HEK293 (ATCC CRL-1573)
T1 sequence (P22771+P07727 with tags, fused parts or gaps P22771:V274I/P22771:A288G/P22771:A330S/P22771:F348L/P22771:L351F): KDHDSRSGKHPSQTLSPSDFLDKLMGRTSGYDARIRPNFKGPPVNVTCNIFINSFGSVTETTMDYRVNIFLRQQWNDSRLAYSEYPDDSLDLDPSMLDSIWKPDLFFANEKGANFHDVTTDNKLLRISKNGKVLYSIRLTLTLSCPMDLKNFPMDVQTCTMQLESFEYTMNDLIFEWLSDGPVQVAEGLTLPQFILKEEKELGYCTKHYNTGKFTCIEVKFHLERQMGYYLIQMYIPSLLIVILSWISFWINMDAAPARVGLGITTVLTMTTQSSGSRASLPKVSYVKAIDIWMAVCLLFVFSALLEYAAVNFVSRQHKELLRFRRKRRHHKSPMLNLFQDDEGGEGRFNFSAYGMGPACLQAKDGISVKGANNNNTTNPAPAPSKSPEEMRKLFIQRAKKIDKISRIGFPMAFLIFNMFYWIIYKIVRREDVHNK
Experimental: (§1) The cells were transfected with plasmids encoding the following proteins: (i). rat GlyR α (1, 2, 3) subunits alone or combined with rat β subunits (Uniprot Accession Numbers: Q546L7, P22771, P20236, P20781); and (ii). rat GABAAR α1 combined with rat β2 and γ2 subunits (Uniprot Accession Numbers: P62813, P63138, P18508). The EGFP expression was used as a marker of successful protein expression. The transfection was performed using Lipofectamine 2000 (Invitrogen, ThermoFisher, Carlsbad, CA, USA) using the fabricant protocol. The plasmids used to express GlyRs and GABAARs have been previously described. To track the successful expression of GlyR β subunits and the GABAA γ2 or β2 subunit, these proteins were subcloned in the pIRES2-EGFP vector. The transfection ratio to obtain β-containing GlyRs was 1:5 of α:β, while the expression of γ2-containing GABAA receptors was 1:2:5 of α:β:γ2 [14, 15]. Chimeric GlyRs were described in a previous report. Site directed mutagenesis was performed by Charm Gene Science Mutagenex LLC. (Cumming, GA, USA). All the constructs were checked by full-length sequencing (SNPSaurus, Eugene, OR, USA).
(§2) In brief, patch electrodes (3–4 MΩ) were pulled from borosilicate glasses in a PC-100 puller (Narishige, Tokyo, Japan); then, they were filled with an intracellular solution, which contained (in mM) 120 CsCl, 8 EGTA, 10 HEPES (pH 7.4), 4 MgCl2, 0.5 GTP, and 2 ATP. The extracellular solution contained (in mM) 140 NaCl, 5.4 KCl, 2.0 CaCl2, 1.0 MgCl2, 10 HEPES (pH 7.4), and 10 glucose. Whole-cell patch-clamp recordings were performed at −60 mV with an Axoclamp 200B (Molecular Devices, Sunnyvale, CA, USA) or with HEKA EPC-10 (HEKA Elektronik GmbH, Reutlingen, Germany) amplifiers. […] Brief (3–5 s) pulses of agonist together with alkaloids were applied to cells. Stock solutions of the alkaloids were prepared in high purity distilled water. Aliquots of these stock solutions were diluted in reservoirs containing extracellular solution. […] The concentration–response curve parameters for the alkaloid inhibition (IC50, nH, and the maximal current inhibition) were obtained from the fitted curve of normalized concentration–response data points to the equation Iagonist = Imax (agonist)nH/((agonist)nH + (EC50)nH). The IC50 curves are best-fit mean ± SE from pooled data. […] The concentration of agonist corresponds to the sub-saturating agonist concentration used to obtain the IC50 for each alkaloid on a given GlyR subtype.

chimeric α1α2 GlyR = molecular target: T2, chimeric α1α2 GlyR (Rattus norvegicus, UniProt P07727+P22771, F345L/G282A/I268V/L342F/S324A); type: cell-based
T2 construct: Relevance of the ECD for the subunit-specific actions of gelsemine on α1GlyRs; expressed in transfected cells; host or cells: HEK293 (ATCC CRL-1573)
T2 sequence (P07727+P22771 with tags, fused parts or gaps P07727:I268V/P07727:G282A/P07727:S324A/P07727:L342F/P07727:F345L): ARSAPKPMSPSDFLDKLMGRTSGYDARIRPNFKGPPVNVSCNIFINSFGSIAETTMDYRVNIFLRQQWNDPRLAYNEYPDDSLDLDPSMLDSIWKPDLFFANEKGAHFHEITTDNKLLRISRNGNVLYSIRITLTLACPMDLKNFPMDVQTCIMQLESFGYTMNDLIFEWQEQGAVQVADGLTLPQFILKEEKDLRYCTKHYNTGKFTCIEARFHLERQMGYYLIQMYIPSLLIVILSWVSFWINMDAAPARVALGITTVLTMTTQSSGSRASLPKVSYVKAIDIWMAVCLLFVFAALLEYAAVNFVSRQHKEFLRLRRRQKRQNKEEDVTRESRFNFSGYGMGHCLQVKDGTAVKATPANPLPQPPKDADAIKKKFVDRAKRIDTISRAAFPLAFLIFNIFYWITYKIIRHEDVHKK
Experimental: as §1, §2

[1] = in vivo studies; cited from earlier work
α3β GlyR = molecular target: T3, α3β GlyR (Rattus norvegicus, UniProt P20781+P24524); test: cell-based; type: cell-based
T3 construct: The cells were transfected with plasmids encoding the following proteins; expressed in transfected cells; host or cells: HEK293 (ATCC CRL-1573)
Experimental: as §1, §2

T3 sequence (P24524 34-464): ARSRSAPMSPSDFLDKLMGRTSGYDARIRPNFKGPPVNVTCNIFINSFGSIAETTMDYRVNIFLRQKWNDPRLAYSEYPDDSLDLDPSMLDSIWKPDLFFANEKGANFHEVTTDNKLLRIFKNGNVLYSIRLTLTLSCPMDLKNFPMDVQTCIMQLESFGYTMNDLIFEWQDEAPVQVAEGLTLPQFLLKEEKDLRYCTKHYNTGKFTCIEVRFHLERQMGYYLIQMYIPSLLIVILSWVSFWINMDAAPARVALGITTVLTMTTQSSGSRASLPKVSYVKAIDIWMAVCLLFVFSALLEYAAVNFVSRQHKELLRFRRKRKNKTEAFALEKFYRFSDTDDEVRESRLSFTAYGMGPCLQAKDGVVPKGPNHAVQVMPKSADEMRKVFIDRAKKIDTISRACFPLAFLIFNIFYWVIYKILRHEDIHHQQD
T3 sequence (P20781 23-496): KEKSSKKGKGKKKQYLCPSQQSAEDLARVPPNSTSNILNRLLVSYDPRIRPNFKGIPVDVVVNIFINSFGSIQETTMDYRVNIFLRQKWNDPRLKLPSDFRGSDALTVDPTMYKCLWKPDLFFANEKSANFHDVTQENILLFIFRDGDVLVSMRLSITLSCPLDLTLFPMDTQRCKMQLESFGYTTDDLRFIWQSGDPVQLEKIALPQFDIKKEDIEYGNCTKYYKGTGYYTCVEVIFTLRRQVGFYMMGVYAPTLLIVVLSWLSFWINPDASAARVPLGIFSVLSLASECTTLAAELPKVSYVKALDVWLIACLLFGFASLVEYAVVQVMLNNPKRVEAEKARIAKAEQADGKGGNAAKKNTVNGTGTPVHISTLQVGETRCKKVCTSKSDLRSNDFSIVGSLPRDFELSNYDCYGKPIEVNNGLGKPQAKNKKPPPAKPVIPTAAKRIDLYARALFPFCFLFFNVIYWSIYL

SMILES | effect on glycine-evoked currents (in words) (chimeric α2α1 GlyR; 50 μM gelsemine, 65 μM glycine) | effect on glycine-evoked currents (in words) (chimeric α1α2 GlyR; 10 μM gelsemine, 35 μM glycine) | LD50 [1] | EC50 (chimeric α2α1 GlyR; read-out: EC50 of agonist) | EC50 (chimeric α1α2 GlyR; read-out: EC50 of agonist) | EC50 (α3β GlyR; read-out: EC50 of agonist) | IC50 (α3β GlyR) | nH (α3β GlyR; Hill coefficient of inhibition curve) | Ki (α3β GlyR; calculated using the Cheng–Prussof equation)
C=C[C@]12CN(C)[C@@H]3[C@H]4CO[C@H](C[C@H]41)[C@]1(C(=O)Nc4ccccc41)[C@@H]32 [gelsemine] | inhibitory effect | potentiated | higher than 50 mg/kg | – | – | – | – | – | –
NCC(=O)O [glycine, reference compound] | – | – | – | 104 ± 9 µM | 55 ± 3 µM | 243 ± 13 µM | – | – | –
C=C[C@@]12CN(C)[C@H]3C[C@]14C(=Nc1ccccc14)[C@H]1C[C@@H]2[C@@H]3CO1 [koumine] | – | – | higher than 50 mg/kg | – | – | – | 20.2 ± 7.7 µM | 0.9 ± 0.3 | 54.1 ± 20 µM
